Assays:
Test in all cases: biochemical
Design in all cases: KINOMEscan competition binding panel, per cent of control
Settings in all cases: read-out: %Ctrl @ 2800nM
[1] = target: T1, ABL1(H396P)-nonphosphorylated (Homo sapiens, UniProt P00519, H396P)
T1 construct: nonphosphorylated
Protocol: (§1) A panel of binding assays covering 450 human kinases and disease-relevant mutations was performed by DiscoverX (KINOMEscan®, Freemont, CA, USA) according to the standard and validated protocol defined by the contractor. […] Kinase binding assays This study was outsourced to DiscoverX (KINOMEscan®, Freemont, CA, USA) and is compliant with the corresponding project BUY004-01-p-00001. […] Results are reported as percent control (% Ctrl), where lower numbers indicate stronger hits in the matrix on the following page(s). %Ctrl calculation: ((test compound signal-positive control signal) / (negative control signal – positive control signal)) x 100.

[2] = target: T2, ABL1(M351T)-phosphorylated (Homo sapiens, UniProt P00519, M351T)
T2 construct: phosphorylated
Protocol: as §1

AURKA = AURKA (Homo sapiens, UniProt O14965)
Protocol: as §1

CAMK1B = target: T3, CAMK1B (Homo sapiens, UniProt Q6P2M8)
T3 construct: gene PNCK
Protocol: as §1

CDC2L5 = target: T4, CDC2L5 (Homo sapiens, UniProt Q14004)
T4 construct: gene CDK13
Protocol: as §1

CDK2 = CDK2 (Homo sapiens, UniProt P24941)
Protocol: as §1

CDK4 = CDK4 (Homo sapiens, UniProt P11802)
Protocol: as §1

EIF2AK1 = EIF2AK1 (Homo sapiens, UniProt Q9BQI3)
Protocol: as §1

EPHA8 = EPHA8 (Homo sapiens, UniProt P29322)
Protocol: as §1

ERBB3 = ERBB3 (Homo sapiens, UniProt P21860)
Protocol: as §1

ERK2 = target: T5, ERK2 (Homo sapiens, UniProt P28482)
T5 construct: gene MAPK1
Protocol: as §1

ERN1 = ERN1 (Homo sapiens, UniProt O75460)
Protocol: as §1

FER = FER (Homo sapiens, UniProt P16591)
Protocol: as §1

MARK2 = MARK2 (Homo sapiens, UniProt Q7KZI7)
Protocol: as §1

MELK = MELK (Homo sapiens, UniProt Q14680)
Protocol: as §1

MLCK = target: T6, MLCK (Homo sapiens, UniProt Q32MK0)
T6 construct: gene MYLK3
Protocol: as §1

PIP5K2C = target: T7, PIP5K2C (Homo sapiens, UniProt Q8TBX8)
T7 construct: gene PIP4K2C
Protocol: as §1

PRP4 = target: T8, PRP4 (Homo sapiens, UniProt Q13523)
T8 construct: gene PRPF4B
Protocol: as §1

RET = RET (Homo sapiens, UniProt P07949)
Protocol: as §1

RIPK5 = target: T9, RIPK5 (Homo sapiens, UniProt Q6XUX3)
T9 construct: gene DSTYK
Protocol: as §1

SRC = SRC (Homo sapiens, UniProt P12931)
Protocol: as §1

TAOK2 = TAOK2 (Homo sapiens, UniProt Q9UL54)
Protocol: as §1

TIE1 = TIE1 (Homo sapiens, UniProt P35590)
Protocol: as §1

TLK1 = TLK1 (Homo sapiens, UniProt Q9UKI8)
Protocol: as §1

TLK2 = TLK2 (Homo sapiens, UniProt Q86UE8)
Protocol: as §1

TRKA = target: T10, TRKA (Homo sapiens, UniProt P04629)
T10 construct: gene NTRK1
Protocol: as §1

T10 sequence (P04629 whole entry): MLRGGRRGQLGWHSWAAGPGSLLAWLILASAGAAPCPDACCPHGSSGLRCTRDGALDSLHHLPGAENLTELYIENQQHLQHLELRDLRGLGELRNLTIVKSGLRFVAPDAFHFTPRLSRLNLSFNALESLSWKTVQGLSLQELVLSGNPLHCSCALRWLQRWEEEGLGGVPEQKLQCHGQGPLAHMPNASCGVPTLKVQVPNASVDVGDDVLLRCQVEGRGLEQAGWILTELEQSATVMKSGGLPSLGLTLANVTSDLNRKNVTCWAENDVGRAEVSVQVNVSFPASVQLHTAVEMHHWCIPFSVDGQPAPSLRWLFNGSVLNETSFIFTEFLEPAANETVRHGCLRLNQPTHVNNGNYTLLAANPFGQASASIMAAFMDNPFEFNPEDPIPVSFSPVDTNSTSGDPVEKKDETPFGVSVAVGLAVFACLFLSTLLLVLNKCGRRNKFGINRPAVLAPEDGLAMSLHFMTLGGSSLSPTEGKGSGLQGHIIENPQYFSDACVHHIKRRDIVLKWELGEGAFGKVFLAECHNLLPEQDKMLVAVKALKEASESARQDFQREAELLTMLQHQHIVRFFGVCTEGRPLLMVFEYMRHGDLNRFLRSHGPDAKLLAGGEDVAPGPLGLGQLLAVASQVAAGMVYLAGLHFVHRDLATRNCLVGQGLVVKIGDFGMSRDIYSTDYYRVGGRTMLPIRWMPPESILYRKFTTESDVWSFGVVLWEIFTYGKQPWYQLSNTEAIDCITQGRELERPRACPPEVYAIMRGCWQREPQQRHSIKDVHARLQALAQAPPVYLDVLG
T7 sequence (Q8TBX8 whole entry): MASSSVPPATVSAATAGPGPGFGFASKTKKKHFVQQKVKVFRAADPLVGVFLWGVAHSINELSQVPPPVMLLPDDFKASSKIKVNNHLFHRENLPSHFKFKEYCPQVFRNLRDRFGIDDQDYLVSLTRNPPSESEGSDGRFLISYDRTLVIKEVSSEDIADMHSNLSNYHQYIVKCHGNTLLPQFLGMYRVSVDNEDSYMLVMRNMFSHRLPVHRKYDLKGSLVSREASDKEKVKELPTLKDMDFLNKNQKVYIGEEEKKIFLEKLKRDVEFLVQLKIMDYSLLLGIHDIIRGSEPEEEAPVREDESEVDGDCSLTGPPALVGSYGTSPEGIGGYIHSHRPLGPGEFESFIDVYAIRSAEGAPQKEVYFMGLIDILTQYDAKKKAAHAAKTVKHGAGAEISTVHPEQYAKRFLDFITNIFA
Chain of TIE1 (P35590 whole entry): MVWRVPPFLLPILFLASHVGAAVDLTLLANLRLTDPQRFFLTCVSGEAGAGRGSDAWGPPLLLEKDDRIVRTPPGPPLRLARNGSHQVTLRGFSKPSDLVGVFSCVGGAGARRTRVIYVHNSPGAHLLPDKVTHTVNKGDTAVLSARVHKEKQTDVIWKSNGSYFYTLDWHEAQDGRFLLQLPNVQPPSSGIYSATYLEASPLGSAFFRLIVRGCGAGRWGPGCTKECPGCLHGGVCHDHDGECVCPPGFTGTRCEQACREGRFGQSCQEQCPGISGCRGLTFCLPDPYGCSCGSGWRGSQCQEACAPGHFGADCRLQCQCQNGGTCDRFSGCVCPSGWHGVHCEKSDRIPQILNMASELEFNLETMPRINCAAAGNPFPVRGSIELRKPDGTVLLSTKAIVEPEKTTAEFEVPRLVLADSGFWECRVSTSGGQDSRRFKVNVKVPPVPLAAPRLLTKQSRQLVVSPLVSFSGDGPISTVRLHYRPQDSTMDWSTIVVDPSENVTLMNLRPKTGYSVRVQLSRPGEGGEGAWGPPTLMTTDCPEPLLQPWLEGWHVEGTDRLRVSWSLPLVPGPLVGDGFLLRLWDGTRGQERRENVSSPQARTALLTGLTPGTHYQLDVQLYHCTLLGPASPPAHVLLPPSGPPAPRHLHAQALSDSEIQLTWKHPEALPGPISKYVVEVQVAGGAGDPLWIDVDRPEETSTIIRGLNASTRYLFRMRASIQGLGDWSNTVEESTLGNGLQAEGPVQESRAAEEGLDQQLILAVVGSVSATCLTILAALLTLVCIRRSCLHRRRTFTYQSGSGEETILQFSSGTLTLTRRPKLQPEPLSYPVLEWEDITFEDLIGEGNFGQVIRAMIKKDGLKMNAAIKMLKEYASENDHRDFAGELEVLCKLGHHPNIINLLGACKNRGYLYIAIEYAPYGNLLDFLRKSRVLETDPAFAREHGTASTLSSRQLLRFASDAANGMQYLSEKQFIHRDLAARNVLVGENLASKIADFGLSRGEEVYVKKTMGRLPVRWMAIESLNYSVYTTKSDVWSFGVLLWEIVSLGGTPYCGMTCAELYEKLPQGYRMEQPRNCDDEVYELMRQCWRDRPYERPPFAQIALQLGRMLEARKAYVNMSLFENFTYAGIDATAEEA
T5 sequence (P28482 whole entry): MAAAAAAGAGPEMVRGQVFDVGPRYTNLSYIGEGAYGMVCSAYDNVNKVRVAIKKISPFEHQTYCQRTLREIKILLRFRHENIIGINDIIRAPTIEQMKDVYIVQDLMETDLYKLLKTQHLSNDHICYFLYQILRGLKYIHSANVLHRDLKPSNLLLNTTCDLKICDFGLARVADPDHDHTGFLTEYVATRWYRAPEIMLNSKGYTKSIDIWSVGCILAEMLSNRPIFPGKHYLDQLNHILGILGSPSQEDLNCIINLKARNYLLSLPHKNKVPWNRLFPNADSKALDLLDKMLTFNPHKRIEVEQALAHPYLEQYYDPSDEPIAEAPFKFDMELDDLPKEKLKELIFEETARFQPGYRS
Chain of MELK (Q14680 whole entry): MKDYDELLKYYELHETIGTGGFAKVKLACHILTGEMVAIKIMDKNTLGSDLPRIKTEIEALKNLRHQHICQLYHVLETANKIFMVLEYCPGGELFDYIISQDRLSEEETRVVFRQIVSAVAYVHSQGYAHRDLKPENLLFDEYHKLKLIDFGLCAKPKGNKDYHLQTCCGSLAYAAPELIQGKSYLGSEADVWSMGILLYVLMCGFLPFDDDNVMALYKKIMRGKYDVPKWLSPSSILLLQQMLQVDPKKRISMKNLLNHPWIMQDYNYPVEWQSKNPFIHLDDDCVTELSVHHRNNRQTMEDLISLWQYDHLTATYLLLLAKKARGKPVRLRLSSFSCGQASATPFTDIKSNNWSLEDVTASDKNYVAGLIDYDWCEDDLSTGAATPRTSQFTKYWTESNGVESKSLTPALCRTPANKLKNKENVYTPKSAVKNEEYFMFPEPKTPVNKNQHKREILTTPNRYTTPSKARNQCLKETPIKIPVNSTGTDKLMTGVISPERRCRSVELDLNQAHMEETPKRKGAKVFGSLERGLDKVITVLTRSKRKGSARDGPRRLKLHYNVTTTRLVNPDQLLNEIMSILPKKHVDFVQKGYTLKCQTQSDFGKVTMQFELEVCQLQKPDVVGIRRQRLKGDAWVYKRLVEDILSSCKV
Chain of MARK2 (Q7KZI7 whole entry): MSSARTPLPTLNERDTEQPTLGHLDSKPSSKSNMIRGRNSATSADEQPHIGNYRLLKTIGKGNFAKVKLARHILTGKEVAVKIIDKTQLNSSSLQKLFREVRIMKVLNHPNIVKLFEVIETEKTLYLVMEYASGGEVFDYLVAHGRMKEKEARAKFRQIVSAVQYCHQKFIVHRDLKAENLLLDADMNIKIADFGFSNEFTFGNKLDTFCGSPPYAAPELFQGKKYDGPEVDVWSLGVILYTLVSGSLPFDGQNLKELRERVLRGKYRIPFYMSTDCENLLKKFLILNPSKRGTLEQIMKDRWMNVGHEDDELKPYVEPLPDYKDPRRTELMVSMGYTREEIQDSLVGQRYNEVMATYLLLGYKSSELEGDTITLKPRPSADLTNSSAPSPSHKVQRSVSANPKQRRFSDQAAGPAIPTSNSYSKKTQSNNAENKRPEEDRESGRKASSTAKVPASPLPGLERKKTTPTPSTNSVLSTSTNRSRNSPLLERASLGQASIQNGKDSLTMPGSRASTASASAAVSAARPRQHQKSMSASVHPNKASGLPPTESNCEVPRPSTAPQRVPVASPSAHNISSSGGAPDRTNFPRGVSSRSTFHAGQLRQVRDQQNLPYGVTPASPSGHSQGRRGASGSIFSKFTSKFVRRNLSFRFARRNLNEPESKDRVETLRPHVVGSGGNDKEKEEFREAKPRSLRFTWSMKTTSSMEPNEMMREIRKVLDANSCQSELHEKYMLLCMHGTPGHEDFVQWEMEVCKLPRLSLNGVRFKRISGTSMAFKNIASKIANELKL
Chain of SRC (P12931 whole entry): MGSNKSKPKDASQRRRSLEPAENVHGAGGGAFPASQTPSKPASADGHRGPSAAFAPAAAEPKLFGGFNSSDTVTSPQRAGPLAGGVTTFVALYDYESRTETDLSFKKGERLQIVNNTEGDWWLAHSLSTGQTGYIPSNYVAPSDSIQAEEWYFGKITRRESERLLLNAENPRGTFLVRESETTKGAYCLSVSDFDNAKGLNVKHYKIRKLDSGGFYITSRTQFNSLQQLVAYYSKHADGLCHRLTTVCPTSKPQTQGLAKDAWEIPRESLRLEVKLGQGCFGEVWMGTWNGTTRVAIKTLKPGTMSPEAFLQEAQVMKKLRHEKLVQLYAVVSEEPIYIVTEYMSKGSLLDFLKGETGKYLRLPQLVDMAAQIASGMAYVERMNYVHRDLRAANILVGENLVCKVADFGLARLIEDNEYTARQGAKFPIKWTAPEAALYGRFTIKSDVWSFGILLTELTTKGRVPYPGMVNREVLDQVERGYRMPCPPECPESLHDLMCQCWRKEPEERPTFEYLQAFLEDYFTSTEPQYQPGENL
T3 sequence (Q6P2M8 whole entry): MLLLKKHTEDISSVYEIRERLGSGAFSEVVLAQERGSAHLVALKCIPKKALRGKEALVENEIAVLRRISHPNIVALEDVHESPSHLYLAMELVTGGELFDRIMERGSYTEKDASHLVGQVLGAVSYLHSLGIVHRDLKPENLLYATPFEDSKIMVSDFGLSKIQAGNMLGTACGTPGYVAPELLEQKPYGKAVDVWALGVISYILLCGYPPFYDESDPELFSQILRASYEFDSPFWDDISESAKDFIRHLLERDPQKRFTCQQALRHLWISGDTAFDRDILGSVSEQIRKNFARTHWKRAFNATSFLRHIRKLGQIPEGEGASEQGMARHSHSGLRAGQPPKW

[O-][S@@+](Cc1cncs1)C(c1ccccc1)c1ccccc1 [S-CE-123, (S)-5-((Benzhydrylsulfinyl)Methyl)Thiazole]
remaining binding at 2.8 µM [1]: 86%
remaining binding at 2.8 µM [2]: 100%
remaining binding at 2.8 µM (AURKA): 91%
remaining binding at 2.8 µM (CAMK1B): 100%
remaining binding at 2.8 µM (CDC2L5): 98%
remaining binding at 2.8 µM (CDK2): 94%
remaining binding at 2.8 µM (CDK4): 100%
remaining binding at 2.8 µM (EIF2AK1): 100%
remaining binding at 2.8 µM (EPHA8): 100%
remaining binding at 2.8 µM (ERBB3): 89%
remaining binding at 2.8 µM (ERK2): 95%
remaining binding at 2.8 µM (ERN1): 86%
remaining binding at 2.8 µM (FER): 100%
remaining binding at 2.8 µM (MARK2): 100%
remaining binding at 2.8 µM (MELK): 67%
remaining binding at 2.8 µM (MLCK): 96%
remaining binding at 2.8 µM (PIP5K2C): 100%
remaining binding at 2.8 µM (PRP4): 92%
remaining binding at 2.8 µM (RET): 96%
remaining binding at 2.8 µM (RIPK5): 95%
remaining binding at 2.8 µM (SRC): 100%
remaining binding at 2.8 µM (TAOK2): 100%
remaining binding at 2.8 µM (TIE1): 100%
remaining binding at 2.8 µM (TLK1): 91%
remaining binding at 2.8 µM (TLK2): 95%
remaining binding at 2.8 µM (TRKA): 100%

Reference: article PMC10046369, “Low-Affinity/High-Selectivity Dopamine Transport Inhibition Sufficient to Rescue Cognitive Functions in the Aging Rat” (Biomolecules, 2023)
